± gives the expanded uncertainty stated by the source.

The nature of this series: mn = molality of the nth substance listed, in mol/kg. Conditions: 298.15 K; 101.33 kPa; Liquid; Calvet calorimetry; m1 = 0.1.
Consider `NCC(=O)O` [2-aminoacetic acid] + O, for which the apparent molar enthalpy was determined as 3.38 ± 0.0574 kcal/mol.

In the case of `C[C@H](N)C(=O)O` [(S)-2-aminopropanoic acid] + O, the apparent molar enthalpy was determined as 1.81 ± 0.0359 kcal/mol.

Turning to `N[C@@H](CO)C(=O)O` [L-serine] + O, the apparent molar enthalpy amounted to 2.71 ± 0.0478 kcal/mol.

The record behind these values is the NIST ThermoML archive (doi:10.1021/je050296u).
